Several values for one entry are separate records, joined by “and”; a condition that tells them apart may be missing. Equal entries are not always repeated.

The values below come from patent US10948480B2, “Immunity to folate receptors” (priority 2006, dated 2021).

One experiment deals with PBMCs (T cells). The experiment in a line: 10-day IFN-γ ELIspot for low-frequency T cells. The format is cell-based, human. The following applies: for Patients Proportion (%) responding: breast and ovarian cancer patients; for Patients Proportion (%) responding / Healthy Donor Proportion (%) responding: 10 μg/mL polypeptide, positive = p<0.05 vs no antigen and >1:100,000; for Healthy Donor Proportion (%) responding: healthy donors. Here is the method:
An equal volume of Hank's balanced salt solution (HBSS) was added to the blood samples. Twenty-five mL of diluted blood was overlaid onto 15 mL of Ficoll-Paque in a 50 mL conical test tube centrifuged at 374×g for 35 minutes at room temperature. Following centrifugation, the buffy coats were centrifuged (12 minutes, 216×g). The cell pellets were washed and resuspended in freezing media (RPMI supplemented with 12.5% HSA, penicillin, streptomycin, and 2 mM glutamine). Cells were adjusted to 20×10^6/mL cells, and an equal volume of cold 12.5% HSA RPMI containing 25% DMSO (Sigma D2650) was added. Cells were aliquoted and transferred to a −80° C. freezer. After overnight incubation, the vials were transferred to liquid nitrogen.
For in vitro assay, each vial of cells was thawed, and the contents were transferred to a test tube containing 12 mL of cell culture media. Following centrifugation, the cells were resuspended in 2-3 mL of medium, and viability was determined by dye exclusion. The mean number of PBMC purified from the blood of donors was 1.6±0.07×10^6 cells/mL of whole blood for healthy donors and 1.0±0.07×10^6/mL for cancer patients (p<0.0001). This cryopreservation and thawing procedure was optimized for recovery of antigen-specific T cell function (Disis et al., J. Immunol. Methods, 308(1-2):13-8 (2006)).
A 10-day ELIspot for detecting low-frequency T cells was used to determine reactivity to the FRα-derived polypeptides (Table 1). ELIspots were carried out in groups of two donors (two healthy donors, one healthy donor/one cancer patient, or two cancer patients). The assay was carried out as described elsewhere (Knutson et al., J. Clin. Invest., 107:477-84 (2001)). On day 1, 2.5×10^5 PBMCs/well were plated into 96-well plates in 3-well replicates in 200 μL of RPMI-1640 containing L-glutamine, penicillin, streptomycin, and 10% fetal calf serum (T-cell medium) in the presence or absence of 10 μg/mL polypeptide antigen. The cells were incubated at 37° C. and IL-2 (Zeptometric, Inc., Buffalo, N.Y.) was added to 10 U/mL on day 5. On day 8, 2.5×10^5/well irradiated autologous PBMCs and 10 μg/mL antigens were added. On day 9, the cells were transferred to an anti-IFN-γ-coated nitrocellulose (NC)-plate (Millipore Corporation, Bedford, Mass.). The NC-plate was incubated (37° C.) for a further 20-24 hours followed by washing three times using PBS containing 0.05% Tween-20. The plate was then incubated for 2.5 hours at RT in PBS with 5 μg/mL biotinylated anti-IFN-γ Ab, washed in PBS, and further incubated with 100 μL/well avidin-horseradish peroxidase (HRP, Vector Laboratories, Burlingame, Calif.)) for 2 hours at room temperature. After three washes in PBS, the plate was incubated with 100 μL/well HRP-colorimetric substrate (Vector Laboratories) for 20-30 minutes, rinsed with cool tap water, and allowed to dry completely. The nitrocellulose plates were read on an AID ELIspot reader (Cell Technology, Inc., Columbia, Md.; reader software v.3.1.1.). […] A 17-amino acid polypeptide (KISQAVHAAHAEINEAG; SEQ ID NO: 1) derived from chicken egg ovalbumin, produced in the same fashion as the FRα polypeptides, was used as a control polypeptide. […] The anti-IFN-γ and biotinylated anti-IFN-γ antibody pair were obtained from Mabtech (Sweden).
The T cell magnitude for each donor was summed across all 14 polypeptides which, along with the response multiplicity, was compared with age using regression. Student's t test was used for means unless the data were not normally distributed, in which case Mann-Whitney test was used. Fisher's Exact Test was used for comparing proportions. A proportion was considered elevated, relative to other polypeptides, if that proportion was statistically elevated relative to the mean proportion, 8.7%, which is the ratio of the total number of significant (p<0.05, two-tailed t test) polypeptide-specific responses over the total number of donors. […]

In experiment [1] the test system is antibodies in diluted serums. The format is binding, human.
Experiment [2] has as its system PBMC (CD4 and CD8 T cells). The experiment in a line: IFN-γ cytokine flow cytometry. The format is cell-based, human. The conditions noted are these: PBMC from three patients that had responded to FR56. As to the method: PBMC were cultured with peptide (10 μg/mL) for seven days. IL-2 (20 U/mL) were added on Day 3. After seven days, the cells were distributed into a 96-well plate with fresh irradiated autologous PBMC. Either medium alone or medium supplemented with PHA-L (20 μg/well) or recall polypeptide (10 μg/well) was added to the appropriate wells for 29 hours. Golgi-Stop was added for the last five hours followed by washing in PBS-0.5% BSA. The cells were resuspended in the same buffer containing anti-CD4-FITC and anti-CD8-APC for 30 minutes, followed by washes and fixing. The cells were permeabilized alone or with unconjugated anti-human IFN-γ (adsorption control) followed by washing and incubation with anti-human anti-IFN-γ-APC for 30 minutes. The cells were washed, fixed, and analyzed using a BD Biosciences FACscan flow cytometer and CellQuest Pro Software (version 4.0.2., BD Biosciences). A response to antigen was considered as positive if there was at least a 50% increase in IFN-γ[…] cells, and it was blocked by the adsorption control.

Take “VDQSWRKERVLNVPL (listed as Homo sapiens) [FR120]”: in the experiment on PBMCs (T cells), the “Patients Proportion (%) responding” value was 13% and the “Healthy Donor Proportion (%) responding” value is 11%. As to “PWAAWPFLLSLALMLLWL (listed as Homo sapiens) [FR238]”, the “Patients Proportion (%) responding” value in the experiment on PBMCs (T cells) is 23%. On to “LGPWIQQVDQSWRKERV (listed as Homo sapiens) [FR113]”, for which the “Healthy Donor Proportion (%) responding” value in the experiment on PBMCs (T cells) worked out at 0%. The same measure, in the same setting: then “RTELLNVCMNAKHHKEK (listed as Homo sapiens) [FR30]”, with 6%.

As to “ACKRHFIQDTCLYECS (listed as Homo sapiens) [FR95]”, in the experiment with PBMCs (T cells), the “Patients Proportion (%) responding” value is reported as 23% and the “Healthy Donor Proportion (%) responding” value is 6%.

Regarding “WHKGWNWTSGFNKCAVGA (listed as Homo sapiens) [FR156]”, in the experiment on PBMCs (T cells), the “Patients Proportion (%) responding” value worked out at 23% and the “Healthy Donor Proportion (%) responding” value stood at 17%. Turning to tetanus toxin [TT], the Antibody responses in experiment [1] is 30 ± 4 µg/mL and 27 ± 4 µg/mL. As for “MTTQLLLLLVWVAVVGEAQ (listed as Homo sapiens) [FR5]”, in the experiment on PBMCs (T cells), the “Patients Proportion (%) responding” value is 17% and the “Healthy Donor Proportion (%) responding” value was 6%.

For “KISQAVHAAHAEINEAG (listed as Gallus gallus) [ovalbumin-derived control polypeptide, reference compound]”, the “responses in patients vs healthy donors” value in the experiment with PBMCs (T cells) (comparison of the two populations (FIG. 3A)) is given as “not different”. In the case of “CKSNWHKGWNWTSGFN (listed as Homo sapiens) [FR152]”, in the experiment with PBMCs (T cells), the “Patients Proportion (%) responding” value is recorded as 23% and the “Healthy Donor Proportion (%) responding” value was 6%. Take “VARFYAAAMSGAGPWA (listed as Homo sapiens) [FR225]”: in the experiment with PBMCs (T cells), the “Patients Proportion (%) responding” value came out at 7% and the “Healthy Donor Proportion (%) responding” value turned out to be 22%. Consider “DCEQWWEDCRTSYTCK (listed as Homo sapiens) [FR138]”, for which, in the experiment on PBMCs (T cells), the “Patients Proportion (%) responding” value is listed as 30% and the “Healthy Donor Proportion (%) responding” value worked out at 22%. As for “LLVWVAVVGEAQTRI (listed as Homo sapiens) [FR12]”, in the experiment on PBMCs (T cells), the “Patients Proportion (%) responding” value turned out to be 7% and the “Healthy Donor Proportion (%) responding” value was 6%. As to “RTSYTCKSNWHKGWNWT (listed as Homo sapiens) [FR147]”, in the experiment on PBMCs (T cells), the “Patients Proportion (%) responding” value turned out to be 40% and the “Healthy Donor Proportion (%) responding” value turned out to be 22%. In the experiment with PBMCs (T cells) (healthy donor 15, no antigen control 5±1), “QCRPWRKNACCSTNT (listed as Homo sapiens) [FR56]” returned an ELIspot response of 3±1 spots/well. Further, in the experiment with PBMCs (T cells), the “Healthy Donor Proportion (%) responding” value was determined as 6%. For the same substance, the “recognition by ovarian vs breast cancer patients” value in the experiment with PBMCs (T cells) (p=0.05) is “recognized more often”. The substance also registered an ELIspot response in the experiment with PBMCs (T cells) (patient 37, mean±s.e.m., n=3, no antigen 26±2) of 183±17 spots/well. In experiment [2], the “patients with CD4 T cell response” value is listed as “All three” and the “patients with CD8 T cell response” value was “two of three”.

In the case of “KDVSYLYRFNWNHCGEMA (listed as Homo sapiens) [FR76]”, in the experiment with PBMCs (T cells), the “Patients Proportion (%) responding” value came to 13% and the “Healthy Donor Proportion (%) responding” value amounted to 11%.
